Measurements reported in patent US20260365653A1, “IRREVERSIBLE MUTEGFR INHIBITORS” (Bayer Aktiengesellschaft, priority 2022, published 2026).

Legend:
[1] = molecular target: T1, mutEGFR (D770_N771insNPG, T790) (Homo sapiens, UniProt P00533, INS770NPG/T790M); assay: mutEGFR (D770_N771insNPG, T790) kinase assay; type: biochemical
T1 construct: exact insNPG construct not described; in-house EGFR proteins were N-terminal GST fusions from baculovirus/insect cells (borders R669-A1210 given only for WT, insSVD, insASV)
Excerpt: The different EGFR proteins used in the biochemical kinase activity inhibition assays were generated inhouse by expression in insect cells using Baculo Virus system and subsequent purification as described in the following paragraphs.
The cDNAs encoding the various protein sequences from human EGFR human (P00533) were optimized for expression in eukaryotic cells and synthesized by the GeneArt Technology at Life Technologies.

[2] = system: BA/F3 (insSVD) cells; assay: Ba/F3-EGFR-insSVD cell survival assay (Cell Titer-Glo); type: cell-based
Method in brief: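 CellTiter-Glo luminescence read after 48 h compound exposure at 37° C. Cells: IL-3-independent Ba/F3 lines transduced with EGFR-insSVD or EGFR-insSVD T790M, maintained on 10 ng/ml EGF and seeded at 4000 per well.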

[3] = system: BA/F3 (EGFR D770_N771 insSVD T790M) cells; assay: Ba/F3-EGFR-insSVD T790M cell survival assay (Cell Titer-Glo); type: cell-based; details: Ba/F3 EGFR-D770-N771ins_SVD, 48 h
Description: Cellular Data Description (WT, insSVD, insSVD T790M) 293T cells from ATCC were transfected with pBABEpuro expression constructs for WT EGFR or EGFR-insSVD, or EGFR-insSVD T790M, and pCL-Eco packaging vector using Fugene-6 transfection reagent from Promega. Plates were incubated at 37° C. for 48 h. Retrovirus was harvested by filtering the media supernatant through a 0.45 μm filter.
Ba/F3 cells purchased from DSMZ were grown in RPMI+10% FBS+10 ng/ml IL-3 and infected with filtered retroviral supernatant at a 1:2 dilution. Polybrene was added to a concentration of 8 μg/mL, plates were spun for 90 min, and incubated for 16 h at 37° C. 2 μg/mL puromycin was added to the infected cells 24 h after infection and cells were continually grown in the presence of puromycin and 10 ng/ml IL-3. Following stably expressing Ba/F3 cell lines were generated: Ba/F3-EGFR-WT, Ba/F3-EGFR-insSVD, Ba/F3-EGFR-insSVD T790M, (Ba/F3-vector-control).
For cell survival assays, Ba/F3 cells were grown to a density of 1-2 million cells per mL, spun down and resuspended in media without IL-3, and replated at a concentration of 200,000-500,000 cells per mL. The cells ectopically expressing WT EGFR, EGFR-insSVD, or EGFR-insSVD T790M were plated with 10 ng/ml Millipore Culture grade EGF. The cells ectopically expressing pBABEpuro empty vector were plated with 10 ng/mL IL-3.
2 days later, cells were plated in 50 µL in a 384 well plate at a concentration of 4000 cells per well for cells assayed in the absence of IL-3 and 2000 cells per well for cells assayed in the presence of IL-3. 100 nL of compound was added to each well using a 100 nL pin head, and plates were incubated at 37° C. for 48 h.
Cell viability was measured by adding 20 μL of Cell Titer-Glo Luminescent Cell Viability Reagent diluted 1:3 in PBS. Plates were sealed with Perkin Elmer Top-Seal, inverted several times to mix, and immediately centrifuged at 1000 rpm for 2 min. Plates were incubated in low light conditions for 8-10 min and luminescence was measured.

[4] = molecular target: T2, mutEGFR (D770_N771insSVD) (Homo sapiens, UniProt P00533, DUP768-770); assay: Exon20-Mutant-EGFR (D770_N771insSVD) kinase assay (TR-FRET); type: biochemical
T2 construct: GST-EGFR #3 (SVD between D770 and N771); made in house; host or cells: Sf9 insect cells (baculovirus)

[5] = Mus musculus, BaF3, 48 h, Table 3a, cell survival, Cell Titer-Glo, with 10 ng/ml EGF, without IL-3
[6] = Table 3a, cell survival, Cell Titer-Glo, with 10 ng/ml EGF, without IL-3
[7] = mutEGFR (D770_N771insSVD) kinase assay IC50, Table 2a, D770_N771insSVD, 2 mM ATP
[8] = Table 2b (from US Priority Patent Application), mutEGFR D770_N771insNPG
[9] = Mus musculus, BaF3, 48 h, Table 3b, Ba/F3 EGFR-insSVD
[10] = Table 3b, Ba/F3 EGFR-insSVD T790M
[11] = mutEGFR (D770_N771insSVD) kinase assay IC50, Table 2b (from US Priority Patent Application), mutEGFR D770_N771insSVD

T1 sequence (P00533 with tags, fused parts or gaps INS770NPG/T790M limits assumed): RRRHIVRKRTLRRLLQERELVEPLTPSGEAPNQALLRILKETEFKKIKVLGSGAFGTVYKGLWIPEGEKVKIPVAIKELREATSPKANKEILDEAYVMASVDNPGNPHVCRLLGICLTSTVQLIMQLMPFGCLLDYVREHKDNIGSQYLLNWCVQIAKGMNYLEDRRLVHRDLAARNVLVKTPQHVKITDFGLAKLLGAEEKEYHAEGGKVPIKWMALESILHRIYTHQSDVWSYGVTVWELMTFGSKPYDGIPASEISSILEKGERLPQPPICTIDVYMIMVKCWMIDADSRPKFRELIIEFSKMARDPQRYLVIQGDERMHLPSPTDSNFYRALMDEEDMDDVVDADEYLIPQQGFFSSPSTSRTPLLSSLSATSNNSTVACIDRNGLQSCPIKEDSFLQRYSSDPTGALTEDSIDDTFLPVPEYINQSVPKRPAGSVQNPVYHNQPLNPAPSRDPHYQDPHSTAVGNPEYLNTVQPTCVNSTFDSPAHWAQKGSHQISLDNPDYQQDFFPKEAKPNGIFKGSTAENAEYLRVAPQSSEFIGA
T2 sequence (P00533 with tags, fused parts or gaps DUP768-770): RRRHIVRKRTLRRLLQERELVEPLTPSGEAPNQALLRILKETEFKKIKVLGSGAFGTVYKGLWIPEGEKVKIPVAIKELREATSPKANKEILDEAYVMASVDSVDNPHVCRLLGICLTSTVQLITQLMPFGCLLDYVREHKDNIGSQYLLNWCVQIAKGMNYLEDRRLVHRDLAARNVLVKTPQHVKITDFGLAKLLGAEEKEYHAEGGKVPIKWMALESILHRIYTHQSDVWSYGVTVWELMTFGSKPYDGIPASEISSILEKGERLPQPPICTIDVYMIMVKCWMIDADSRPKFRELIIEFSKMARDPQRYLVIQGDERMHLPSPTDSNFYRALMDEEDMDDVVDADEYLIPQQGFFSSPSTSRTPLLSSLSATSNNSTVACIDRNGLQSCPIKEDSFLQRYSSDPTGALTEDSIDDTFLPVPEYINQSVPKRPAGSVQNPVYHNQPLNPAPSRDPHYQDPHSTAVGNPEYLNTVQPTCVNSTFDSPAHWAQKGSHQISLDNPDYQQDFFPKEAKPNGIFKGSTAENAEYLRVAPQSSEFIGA

Row | Structure (SMILES) | IC50 ([1]; Table 2a, D770_N771insNPG) [µM] | IC50 [2, 5] [µM] | IC50 [3, 6] [µM] | IC50 [4, 7] [µM] | IC50 ([2]; Table 3a, cell survival, Cell Titer-Glo, with 10 ng/ml EGF, without IL-3, 48 h) [µM] | IC50 [1, 8] [µM] | IC50 [2, 9] [µM] | IC50 [3, 10] [µM] | IC50 [4, 11] [µM]
1 | C=CC(=O)N1Cc2c(-c3ccncc3)c(-c3ccc(F)cc3)nn2C(CO)C1 (racemic) [Example 203, 1-[(7RS)-2-(4-fluorophenyl)-7-(hydroxymethyl)-3-(pyridin-4-yl)-6,7-dihydropyrazolo[1,5-a]pyrazin-5(4H)-yl]prop-2-en-1-one] | 0.00142 | 0.0174 | 0.108 | 0.000409 |  |  |  |  | 
2 | C=CC(=O)N1C(C)c2c(-c3ccncc3)c(-c3ccc(Cl)cc3F)nn2C[C@@H]1C (single isomer, unassigned; isomer 2) [Example 293] | 0.096 |  | 9.98 | 0.0503 | 0.38 |  |  |  | 
3 | C=CC(=O)N1CCn2nc(-c3ccc(F)cc3)c(-c3ccncc3)c2C1 [Example 1, 1-[2-(4-fluorophenyl)-3-(pyridin-4-yl)-6,7-dihydropyrazolo[1,5-a]pyrazin-5(4H)-yl]prop-2-en-1-one] | 0.000953 | 0.0346 | 0.119 | 0.000618 |  | 0.000953 | 0.0346 | 0.119 | 0.000618
4 | C=CC(=O)N1CCn2nc(-c3ccc(Cl)cc3)c(-c3ccncc3)c2C1 [Example 3, 1-[2-(4-chlorophenyl)-3-(pyridin-4-yl)-6,7-dihydropyrazolo[1,5-a]pyrazin-5(4H)-yl]prop-2-en-1-one] | 0.000324 | 0.0132 | 0.108 | 0.000139 |  | 0.000324 | 0.0132 | 0.108 | 0.000139
5 | C=CC(=O)N1CCn2nc(-c3cccc(OC)c3)c(-c3ccncc3)c2C1 [Example 5, 1-[2-(3-methoxyphenyl)-3-(pyridin-4-yl)-6,7-dihydropyrazolo[1,5-a]pyrazin-5(4H)-yl]prop-2-en-1-one] | 0.00104 | 0.0805 | 0.114 | 0.00219 |  | 0.00104 | 0.0805 | 0.114 | 0.00219
6 | C=CC(=O)N1Cc2c(-c3ccnc4[nH]cc(C)c34)c(-c3cccc(C#N)c3)nn2C[C@@H]1C [Example 283, 3-[(6S)-6-methyl-3-(3-methyl-1H-pyrrolo[2,3-b]pyridin-4-yl)-5-(prop-2-enoyl)-4,5,6,7-tetrahydropyrazolo[1,5-a]pyrazin-2-yl]benzonitrile] | 0.0303 | 0.0375 |  | 0.249 |  |  |  |  | 
7 | C=CC(=O)N1Cc2c(-c3ccnc4[nH]cc(C)c34)c(-c3cccc(C#N)c3)nn2C[C@H]1C [Example 284, 3-[(6R)-6-methyl-3-(3-methyl-1H-pyrrolo[2,3-b]pyridin-4-yl)-5-(prop-2-enoyl)-4,5,6,7-tetrahydropyrazolo[1,5-a]pyrazin-2-yl]benzonitrile] | 0.174 | 0.53 |  | 1.38 |  |  |  |  | 
8 | Cc1c[nH]c2nccc(-c3c(-c4cccc(C#N)c4)nn4c3CN(C(=O)/C=C/CN(C)C)[C@@H](C)C4)c12 [Example 288, 3-[(6S)-5-[(2E)-4-(dimethylamino)but-2-enoyl]-6-methyl-3-(3-methyl-1H-pyrrolo[2,3-b]pyridin-4-yl)-4,5,6,7-tetrahydropyrazolo[1,5-a]pyrazin-2-yl]benzonitrile] | 0.0538 | 0.181 |  | 0.344 |  |  |  |  | 
9 | Cc1c[nH]c2nccc(-c3c(-c4cccc(C#N)c4)nn4c3CN(C(=O)/C=C/CN(C)C)[C@H](C)C4)c12 [Example 289, 3-[(6R)-5-[(2E)-4-(dimethylamino)but-2-enoyl]-6-methyl-3-(3-methyl-1H-pyrrolo[2,3-b]pyridin-4-yl)-4,5,6,7-tetrahydropyrazolo[1,5-a]pyrazin-2-yl]benzonitrile] | 0.348 | 0.91 |  | 6.74 |  |  |  |  | 
